Tests used:
[1] = Absorption maximum and extinction measurement (absorbance, 1 cm path length, 10 mg/L solutions); format: physicochemical; details: for extinction value: 10 mg/L solution, 1 cm path length; for molar extinction coefficient (ε): at λmax, toluene
Experimental: All percentages are weight percentages, unless otherwise indicated. Concentrations in parts per million (“ppm”) are calculated on a weight/volume basis. When a solvent is not specified for measurement of an absorption maximum, a hydrocarbon solvent is preferred. Extinction values are determined by measuring absorption in absorbance units (“AU”) with a 1 cm path length on 10 mg/L solutions. The term “petroleum hydrocarbons” refers to products having a predominantly hydrocarbon composition, although they may contain minor amounts of oxygen, nitrogen, sulfur or phosphorus; petroleum hydrocarbons are derived from petroleum refining processes; they include, for example, lubricating oil, hydraulic fluid, brake fluid, gasoline, diesel fuel, kerosene, jet fuel and heating oil. An “alkyl” group is a hydrocarbyl group having from one to twenty carbon atoms in a linear, branched or cyclic arrangement. Alkyl groups optionally have one or more double or triple bonds. Substitution on alkyl groups of one or more halo, hydroxy or alkoxy groups is permitted; alkoxy groups may in turn be substituted by one or more halo substituents. Preferably, alkyl groups have no halo or alkoxy substituents, and most preferably, alkyl groups are saturated and unsubstituted. A “heteroalkyl” group is an alkyl group in which at least one carbon has been replaced by O, NR, or S, wherein R is hydrogen, alkyl, aryl or aralkyl. An “aryl” group is a substituent derived from an aromatic hydrocarbon compound. An aryl group has a total of from six to twenty ring atoms, and has one or more rings which are separate or fused. An “aralkyl” group is an “alkyl” group substituted by an “aryl” group. A “heterocyclic” group is a substituent derived from a heterocyclic compound having from five to twenty ring atoms, at least one of which is nitrogen, oxygen or sulfur. […] Substitution on aryl or heterocyclic groups of one or more of the following groups: halo, cyano, nitro, hydroxy, alkoxy, alkyl, heteroalkyl, alkanoyl, amino, or amino substituted by one or more of alkyl, aryl, aralkyl, heterocyclic, heteroalkyl or alkanoyl is permitted, with substitution by one or more halo groups being possible on alkyl, heteroalkyl, alkanoyl or alkoxy groups. […] In one preferred embodiment of the invention, aryl and heterocyclic groups are unsubstituted or substituted only by alkyl groups. An “aromatic heterocyclic” group is a heterocyclic group derived from an aromatic heterocyclic compound.
The absorption maxima, λmax, of several substituted anthraquinone dyes of formula (I), measured in xylene, are provided in the following table. For all of the dyes listed, R^4 and R^6 are hydrogen.

Solubility in xylene = format: physicochemical; details: weight percentage
Experimental: A mixture of leuco-1,4,5,8-tetrahydroxyanthraquinone (5.91 g), sodium dithionite (1.09 g) and 1-hexanol (175.2 g) was stirred while adding 2-ethylhexylamine (24.08 g). The mixture was heated to reflux (148-152° C.), maintained at reflux for 6-6.5 hours, and then cooled to ambient temperature. The precipitate was collected and washed thoroughly with methanol and water, and dried. The yield of dried isolated product was 7.0 g. Approximately another 1.9 g was present in the mother liquor, for a total yield of 8.9 g (90%). This material has a maximum absorption band (λmax) at a wavelength of 692 nm in xylene, or 688 nm in cyclohexane, with an extinction value of 0.640 AU in xylene and 0.660 AU in cyclohexane for a 10 mg/L solution. The solubility of the title compound in xylene is approximately 20%.

maximum absorption band (λmax) wavelength ([1]; in xylene) [nm] | extinction value ([1]; in xylene) [AU] | maximum absorption band (λmax) wavelength ([1]; in toluene) [nm] | SMILES | further results
900 | 0.19 | – | CCCCc1ccc(Nc2c(C#N)c(C#N)c(Nc3ccc(CCCC)cc3)c3c2C(=O)c2c(Nc4ccc(CCCC)cc4)c(C#N)c(C#N)c(Nc4ccc(CCCC)cc4)c2C3=O)cc1 [1,4,5,8-tetra(4′-n-butylphenylamino)-2,3,6,7-tetracyanoanthraquinone] | –
835 | 0.342 | – | CCCCc1ccc(Nc2ccc(Nc3ccc(CCCC)cc3)c3c2C(=O)c2c(Nc4ccc(CCCC)cc4)c(C#N)c(C#N)c(Nc4ccc(CCCC)cc4)c2C3=O)cc1 [1,4,5,8-tetra-(4′-n-butylphenylamino)-2,3-dicyanoanthraquinone] | –
– | – | 675 | CCCCc1ccc(Nc2cccc3c2C(=O)c2c(Nc4ccc(CCCC)cc4)ccc(Nc4ccc(CCCC)cc4)c2C3=O)cc1 [Example 4, 1,4,5-tri(4-n-butylphenylamino)anthraquinone] | –
692 | 0.640 | – | CCCCC(CC)CNc1ccc(NCC(CC)CCCC)c2c1C(=O)c1c(O)ccc(O)c1C2=O (centres unmarked) [Example 1, 1,4-di-(2-ethylhexylamino)-5,8-dihydroxyanthraquinone] | solubility in xylene (Solubility in xylene): approximately 20%; maximum absorption band (λmax) wavelength ([1]; in cyclohexane): 688 nm; extinction value ([1]; in cyclohexane): 0.660 AU; λmax, nm ([1]; measured in xylene, dyes of formula (I), R^4 and R^6 hydrogen): 692 nm
– | – | 750 | O=C1c2c(Nc3ccccc3)ccc(Nc3ccccc3)c2C(=O)c2c(Nc3ccccc3)ccc(Nc3ccccc3)c21 [Example 5, 1,4,5,8-tetra(phenylamino)anthraquinone] | molar extinction coefficient (ε) [1]: ~30,500
700 | 0.23 | – | CCCCNc1c(C#N)c(C#N)c(NCCCC)c2c1C(=O)c1ccccc1C2=O [Example 2, 1,4-di-(n-butylamino)-2,3-dicyanoanthraquinone] | –
– | – | 762 | CCCCc1ccc(Nc2ccc(Nc3ccc(CCCC)cc3)c3c2C(=O)c2c(Nc4ccc(CCCC)cc4)ccc(Nc4ccc(CCCC)cc4)c2C3=O)cc1 [Example 6, 1,4,5,8-tetra(4-n-butylphenylamino)anthraquinone] | molar extinction coefficient (ε) [1]: ~36,900

— patent US20040250469A1, “Method for marking hydrocarbons with substituted anthraquinones” (priority 2003, published 2004)
